Experiments:
B16 melanoma = experiment: In vivo antitumour activity against B16 melanoma grafted subcutaneously in mice, oral administration; conditions: for T − C in days 750 mg: tumours reaching 750 mg
From the text: This activity of the compounds of the invention on […] tumours was studied on the B16 melanoma. […]
A product is considered to be active if log10 cell kill is greater than or equal to 0.7. A product is considered to be very active if log10 cell kill is greater than 2.8.
The animals bearing the tumours are randomized before being subjected to the various treatments and controls. In the case of treatment of tumours of the present invention, the treatment was started at an early stage, 3 to 4 days after implantation. […]
The tumours are measured two or three times a week until the tumour reaches approximately 2 g or until the death of the animal if the latter occurs before the tumour reaches 2 g. The animals are autopsied at the time of sacrifice.
The antitumour activity is determined according to the various parameters recorded.

VEGFR3 = VEGFR3 (Homo sapiens, UniProt P35916); experiment: VEGFR3 kinase inhibition (Table 1); assay type: biochemical; conditions: read-out: VEGFR3, concentration that inhibits 50% of the kinase activity
Chain of VEGFR3 (P35916 25-1363, species assumed): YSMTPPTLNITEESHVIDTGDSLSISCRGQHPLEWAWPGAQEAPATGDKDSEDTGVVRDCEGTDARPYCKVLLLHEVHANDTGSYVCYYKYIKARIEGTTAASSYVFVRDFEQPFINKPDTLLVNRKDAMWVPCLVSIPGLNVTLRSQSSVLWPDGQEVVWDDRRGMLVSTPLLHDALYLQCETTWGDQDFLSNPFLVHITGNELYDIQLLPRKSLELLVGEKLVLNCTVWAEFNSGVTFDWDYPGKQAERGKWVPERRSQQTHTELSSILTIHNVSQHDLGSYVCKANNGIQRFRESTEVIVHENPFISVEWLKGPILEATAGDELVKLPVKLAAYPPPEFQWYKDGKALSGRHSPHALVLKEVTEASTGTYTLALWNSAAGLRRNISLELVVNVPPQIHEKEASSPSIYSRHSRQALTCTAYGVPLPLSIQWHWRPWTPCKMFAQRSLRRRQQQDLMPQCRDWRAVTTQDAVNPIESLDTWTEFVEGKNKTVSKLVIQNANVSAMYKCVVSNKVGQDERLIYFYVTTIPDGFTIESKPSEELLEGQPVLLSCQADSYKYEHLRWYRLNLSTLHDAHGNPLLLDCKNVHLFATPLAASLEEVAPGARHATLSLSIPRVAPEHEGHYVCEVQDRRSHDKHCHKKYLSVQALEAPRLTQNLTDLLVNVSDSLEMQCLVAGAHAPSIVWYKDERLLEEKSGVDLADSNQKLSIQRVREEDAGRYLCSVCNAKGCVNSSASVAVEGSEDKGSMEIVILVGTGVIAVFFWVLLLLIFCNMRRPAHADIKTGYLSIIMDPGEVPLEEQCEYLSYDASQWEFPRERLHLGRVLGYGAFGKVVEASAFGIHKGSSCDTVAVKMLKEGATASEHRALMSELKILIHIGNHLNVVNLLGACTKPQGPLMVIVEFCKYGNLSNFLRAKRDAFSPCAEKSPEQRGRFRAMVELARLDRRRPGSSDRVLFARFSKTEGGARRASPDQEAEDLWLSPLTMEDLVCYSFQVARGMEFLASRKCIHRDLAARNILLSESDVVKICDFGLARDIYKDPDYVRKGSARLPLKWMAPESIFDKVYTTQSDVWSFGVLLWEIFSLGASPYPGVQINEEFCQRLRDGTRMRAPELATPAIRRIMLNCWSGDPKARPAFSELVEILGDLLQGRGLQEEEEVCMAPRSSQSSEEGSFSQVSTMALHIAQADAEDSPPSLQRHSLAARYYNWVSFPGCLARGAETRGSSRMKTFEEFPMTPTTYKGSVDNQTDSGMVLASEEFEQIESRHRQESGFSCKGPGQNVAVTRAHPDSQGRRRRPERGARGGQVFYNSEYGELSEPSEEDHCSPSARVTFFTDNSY

human Tie2 = molecular target: T1, human Tie2 (Homo sapiens, UniProt Q02763); experiment: Tie2 kinase inhibition, phosphorylation of PLCγ substrate, scintillation Flash Plate; assay type: biochemical; conditions: read-out: Tie2, concentration that inhibits 50% of the kinase activity
T1 construct: human Tie2 corresponding to the amino acids of the intracellular domain 774-1124; made in house; host or cells: baculovirus expression (pFastBacGT)
T1 sequence (Q02763 774-1124): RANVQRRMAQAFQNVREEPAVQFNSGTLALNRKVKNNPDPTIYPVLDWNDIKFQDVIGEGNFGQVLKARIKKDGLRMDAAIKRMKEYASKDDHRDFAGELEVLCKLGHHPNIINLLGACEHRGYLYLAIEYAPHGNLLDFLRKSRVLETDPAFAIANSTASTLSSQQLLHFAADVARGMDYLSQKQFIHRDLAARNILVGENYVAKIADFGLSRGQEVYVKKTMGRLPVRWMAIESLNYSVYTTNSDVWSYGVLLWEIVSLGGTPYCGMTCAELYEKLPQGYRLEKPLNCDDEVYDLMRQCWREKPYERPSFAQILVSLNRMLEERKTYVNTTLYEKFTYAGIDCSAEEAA
Description: The inhibitory effect of the compounds is determined in an in vitro test of phosphorylation of substrate via a scintillation technique (96-well plate of basic Flash Plate type).
The coding sequence of human Tie2 corresponding to the amino acids of the intracellular domain 774-1124 was introduced into a pFastBacGT baculovirus expression vector in the form of a GST fusion protein. GST-Tie2 was purified and activated by autophosphorylation. The substrate is composed of residues 658 to 850 of the PLCγ expressed and purified in the form of a GST fusion protein.
The kinase activity of Tie2 is measured in a MOPS 20 mM pH 7.4 buffer, containing 10 mM MgCl2, 10 mM MnCl2 and 1 mM DTT. The compounds are initially diluted in 100% DMSO, then prepared as a 10× solution in 30% DMSO/70% buffer. […] The radioactivity in each well is measured using a Trilux-βWallac radioactivity counter.
The background noise is determined by measuring the radioactivity in four different wells containing ATP (radiolabeled and cold) and the substrate, in the absence of enzyme and of compound. The control activity is measured in four different wells containing all the reagents, but in the absence of compound.
The inhibition of the Tie2 activity is calculated and expressed as a percentage of inhibition relative to the control activity determined in the absence of compound.

FLT1 = FLT1 (Homo sapiens, UniProt P17948); experiment: FLT1 kinase phosphorylation activity by radioactive labeling; assay type: biochemical; conditions: read-out: FLT1, concentration that inhibits 50% of the kinase activity
Chain of FLT1 (P17948 27-1338, species assumed): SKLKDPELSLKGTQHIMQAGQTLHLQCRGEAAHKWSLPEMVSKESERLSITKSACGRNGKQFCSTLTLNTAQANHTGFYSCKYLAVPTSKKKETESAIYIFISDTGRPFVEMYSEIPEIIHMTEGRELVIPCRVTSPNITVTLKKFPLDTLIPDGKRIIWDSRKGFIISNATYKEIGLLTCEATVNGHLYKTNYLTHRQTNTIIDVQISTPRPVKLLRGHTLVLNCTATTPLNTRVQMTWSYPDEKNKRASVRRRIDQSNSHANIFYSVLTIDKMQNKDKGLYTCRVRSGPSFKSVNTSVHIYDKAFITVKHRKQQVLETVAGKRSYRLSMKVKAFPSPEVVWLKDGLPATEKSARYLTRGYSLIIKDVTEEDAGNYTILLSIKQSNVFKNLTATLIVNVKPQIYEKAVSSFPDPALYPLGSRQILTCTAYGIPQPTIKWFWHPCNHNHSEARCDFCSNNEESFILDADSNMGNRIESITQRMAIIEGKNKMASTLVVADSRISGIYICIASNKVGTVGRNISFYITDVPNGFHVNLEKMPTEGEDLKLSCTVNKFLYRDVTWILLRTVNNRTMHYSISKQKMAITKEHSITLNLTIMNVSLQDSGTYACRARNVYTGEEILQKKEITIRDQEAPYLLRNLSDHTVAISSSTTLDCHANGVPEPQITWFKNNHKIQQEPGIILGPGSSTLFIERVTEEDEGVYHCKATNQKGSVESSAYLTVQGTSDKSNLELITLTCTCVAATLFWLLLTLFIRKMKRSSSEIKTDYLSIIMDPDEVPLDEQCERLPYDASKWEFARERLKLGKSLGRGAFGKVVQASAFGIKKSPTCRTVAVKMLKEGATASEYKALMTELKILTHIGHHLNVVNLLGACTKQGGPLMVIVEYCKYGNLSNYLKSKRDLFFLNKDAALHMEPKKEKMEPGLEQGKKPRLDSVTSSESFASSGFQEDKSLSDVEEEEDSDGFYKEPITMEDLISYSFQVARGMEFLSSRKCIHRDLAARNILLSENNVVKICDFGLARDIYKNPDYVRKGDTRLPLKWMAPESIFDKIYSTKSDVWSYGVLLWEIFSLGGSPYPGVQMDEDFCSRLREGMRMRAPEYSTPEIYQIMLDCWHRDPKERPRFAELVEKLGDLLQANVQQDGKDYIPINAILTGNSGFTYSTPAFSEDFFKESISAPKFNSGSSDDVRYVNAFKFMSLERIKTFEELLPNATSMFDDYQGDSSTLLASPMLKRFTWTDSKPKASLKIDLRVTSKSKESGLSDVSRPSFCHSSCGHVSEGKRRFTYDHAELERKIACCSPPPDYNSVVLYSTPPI
Description: 3. […] The inhibition of the FLT1 activity is calculated and expressed as percentage of inhibition relative to the control activity determined in the absence of compound. The percentage of inhibition corresponding to each concentration of molecules is calculated thus: % inhibition=(mean CPM of the control wells−CPM of each)

[1] = PO 62 mg/kg/adm, days 4-14 (2x/d)
[2] = PO 99 mg/kg/adm, days 4-14 (2x/d)
[3] = PO 160.0 mg/kg/adm, days 4-14 (2x/d)
[4] = PO 61.5 mg/kg/adm, day 3-10 (2x/d)
[5] = PO 99.2 mg/kg/adm, day 3-10 (2x/d)

`Cl.NC(=O)c1n[nH]cc1NCc1cc(F)cc(NC(=O)Nc2ccc(C(F)(F)F)cc2Cl)c1` [Example 1, 4-{3-[3-(2-Chloro-4-trifluoromethylphenyl)ureido]-5-fluorobenzylamino}-1H-pyrazole-3-carboxamide hydrochloride] was tested, and the Comments (B16 melanoma; PO 44 mg/kg/adm, day 4-14) was “Inactive”, the “Death due to the product (day of death)” value (B16 melanoma; PO 44 mg/kg/adm, day 4-14, total 481 mg/kg, BCM-1948) was 0/5 and the “Average weight of the tumour in mg on day 13” value (from here on “Average weight … on day 13”) (B16 melanoma; PO 44 mg/kg/adm, day 4-14) was 686 mg. For the same compound, the “T/C in % day 13” value (B16 melanoma; PO 44 mg/kg/adm, day 4-14) was 51%, the “% BWC (day of low point)” value (B16 melanoma; PO 44 mg/kg/adm, day 4-14, low point day 15) was “+10.6 (15) %” and the Comments (B16 melanoma; [1]) was “Active”. The “Total log cell kill” value (B16 melanoma; [1]) was 2.3, the “Death due to the product (day of death)” value (B16 melanoma; PO 62 mg/kg/adm, days 4-14 (2x/d), total 1232 mg/kg, BCM-1948) was 0/5 and the “Average weight … on day 13” value (B16 melanoma; [1]) was 128 mg. The “T/C in % day 13” value (B16 melanoma; [1]) was 10%, the “% BWC (day of low point)” value (B16 melanoma; PO 62 mg/kg/adm, days 4-14 (2x/d), low point day 5) was “+1.8 (5) %” and the “T − C in days 750 mg” value (B16 melanoma; [1]) was 6.2 days. For the same compound, the Comments (B16 melanoma; [2]) was “Active”, the “Total log cell kill” value (B16 melanoma; [2]) was 2.3 and the “Death due to the product (day of death)” value (B16 melanoma; PO 99 mg/kg/adm, days 4-14 (2x/d), total 1966 mg/kg, BCM-1948) was 0/5. The “Average weight … on day 13” value (B16 melanoma; [2]) was 72 mg, the “T/C in % day 13” value (B16 melanoma; [2]) was 5% and the “% BWC (day of low point)” value (B16 melanoma; PO 99 mg/kg/adm, days 4-14 (2x/d), low point day 5) was −1.0 (5) %. For the same compound, the “T − C in days 750 mg” value (B16 melanoma; [2]) was 6.2 days, the “Total log cell kill” value (B16 melanoma; [3]) was 2.6 and the “Death due to the product (day of death)” value (B16 melanoma; PO 160.0 mg/kg/adm, days 4-14 (2x/d), total 3178 mg/kg, BCM-1948) was 0/5. The Comments (B16 melanoma; PO 160.0 mg/kg/adm, days 4-14 (2x/d), HDT = highest dose tested) was “HDT active”, the “Average weight … on day 13” value (B16 melanoma; [3]) was 23 mg and the “T/C in % day 13” value (B16 melanoma; [3]) was 2%. For the same compound, the “% BWC (day of low point)” value (B16 melanoma; PO 160.0 mg/kg/adm, days 4-14 (2x/d), low point day 6) was −2.3 (6) %, the “T − C in days 750 mg” value (B16 melanoma; [3]) was 6.8 days and the IC50 (VEGFR3) was 3 nM. The IC50 (human Tie2) was 36 nM and the IC50 (FLT1) was 3 nM.

With `Cl.NC(=O)c1n[nH]cc1NCc1cc(F)cc(NC(=O)Nc2ccc(C(F)(F)F)cc2F)c1` [Example 2, 4-{3-[3-(2-Fluoro-4-trifluoromethylphenyl)ureido]-5-fluorobenzylamino}-1H-pyrazole-3-carboxamide hydrochloride] the Comments (B16 melanoma; PO 44.0 mg/kg/adm, day 3-10) was “Active”, the “Total log cell kill” value (B16 melanoma; PO 44.0 mg/kg/adm, day 3-10) was 1.0 and the “Death due to the product (day of death)” value (B16 melanoma; PO 44.0 mg/kg/adm, day 3-10, total 352.0 mg/kg, BCM-1979) was 0/6. For the same compound, the “Average weight of the tumour in mg on day 11” value (“Average weight … on day 11” below) (B16 melanoma; PO 44.0 mg/kg/adm, day 3-10) was 201 mg, the “T/C in % day 11” value (B16 melanoma; PO 44.0 mg/kg/adm, day 3-10) was 27% and the “% BWC (day of low point)” value (B16 melanoma; PO 44.0 mg/kg/adm, day 3-10, low point day 11) was “+6.6 (11) %”. The “T − C in days 750 mg” value (B16 melanoma; PO 44.0 mg/kg/adm, day 3-10) was 3.0 days, the Comments (B16 melanoma; [4]) was “Active” and the “Total log cell kill” value (B16 melanoma; [4]) was 1.7. For the same compound, the “Death due to the product (day of death)” value (B16 melanoma; PO 61.5 mg/kg/adm, day 3-10 (2x/d), total 984 mg/kg, BCM-1979) was 0/6, the “Average weight … on day 11” value (B16 melanoma; [4]) was 46 mg and the “T/C in % day 11” value (B16 melanoma; [4]) was 6%. The “% BWC (day of low point)” value (B16 melanoma; PO 61.5 mg/kg/adm, day 3-10 (2x/d), low point day 11) was “+3.9 (11) %”, the “T − C in days 750 mg” value (B16 melanoma; [4]) was 5.0 days and the “Total log cell kill” value (B16 melanoma; [5]) was 1.8. For the same compound, the “Death due to the product (day of death)” value (B16 melanoma; PO 99.2 mg/kg/adm, day 3-10 (2x/d), total 1587.2 mg/kg, BCM-1979) was 0/6, the Comments (B16 melanoma; PO 99.2 mg/kg/adm, day 3-10 (2x/d), HNTD = highest nontoxic dose) was “HNTD active” and the “Average weight … on day 11” value (B16 melanoma; [5]) was 0 mg. The “T/C in % day 11” value (B16 melanoma; [5]) was 0%, the “% BWC (day of low point)” value (B16 melanoma; PO 99.2 mg/kg/adm, day 3-10 (2x/d), low point day 11) was −8.1 (11) % and the “T − C in days 750 mg” value (B16 melanoma; [5]) was 5.4 days. For the same compound, the Comments (B16 melanoma; PO 160.0 mg/kg/adm, day 3-10 (2x/d)) was “Toxic”, the “Death due to the product (day of death)” value (B16 melanoma; PO 160.0 mg/kg/adm, day 3-10 (2x/d), total 2560.0 mg/kg, BCM-1979, days of death 10, 2d11, 13, 2d14) was 6/6 and the “% BWC (day of low point)” value (B16 melanoma; PO 160.0 mg/kg/adm, day 3-10 (2x/d), low point day 13) was −26.5 (13) %. It also gave an IC50 (human Tie2) of 39 nM and an IC50 (FLT1) of 1.3 nM.

— US8367715B2, “Pyrazole derivatives, preparation thereof, and therapeutic use thereof” (priority 2009, dated 2013)
